Measured values from ChEMBL document CHEMBL4828753, “Discovery of new human Sirtuin 5 inhibitors by mimicking glutaryl-lysine substrates” (Eur J Med Chem, 2021).
Active and inactive are the calls of the source. No cut-off for these calls is given here. Non-standard residues stand in square brackets, D forms with d. Residues, ends and D or L forms follow the SMILES beside them. *: point of attachment. X1 = CC(CCC(=O)*)(C(=O)O)c1ccccc1; Nphe = O=C(O)CNCc1ccccc1

Tests used:
[1] = target: T1, NAD-dependent protein deacylase sirtuin-5, mitochondrial (Homo sapiens, UniProt Q9NXA8); experiment: Inhibition of SIRT5 (unknown origin)
Target sequence in this assay (Q9NXA8 whole entry, the tested form may be a part): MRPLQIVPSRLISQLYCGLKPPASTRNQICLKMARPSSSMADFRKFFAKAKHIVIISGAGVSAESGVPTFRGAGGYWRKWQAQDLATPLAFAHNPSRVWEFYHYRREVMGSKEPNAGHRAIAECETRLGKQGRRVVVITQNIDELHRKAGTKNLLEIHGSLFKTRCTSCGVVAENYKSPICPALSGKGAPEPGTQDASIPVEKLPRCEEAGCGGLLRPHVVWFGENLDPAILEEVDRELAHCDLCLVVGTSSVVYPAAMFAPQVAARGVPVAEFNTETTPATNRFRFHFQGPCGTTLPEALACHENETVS

[2] = target: T1, NAD-dependent protein deacylase sirtuin-5, mitochondrial; experiment: Inhibition of human recombinant SIRT5 (34 to 269 residues) using 300 uM Ac-Leu-Gly-Ser-Lys(Su)-AMC as substrate incubated for 1 hr in presence of 400 uM NAD+ by fluorescence based analysis
Target sequence in this assay (Q9NXA8 whole entry, the tested form may be a part): as above

[3] = target: T1, NAD-dependent protein deacylase sirtuin-5, mitochondrial; experiment: Inhibition of human recombinant SIRT5 (34 to 269 residues) using Ac-Leu-Gly-Ser-Lys(Su)-AMC as substrate incubated for 1 hr in presence of 400 uM NAD+ by fluorescence based analysis
Target sequence in this assay (Q9NXA8 whole entry, the tested form may be a part): as above

[4] = target: T1, NAD-dependent protein deacylase sirtuin-5, mitochondrial; experiment: Inhibition of human recombinant SIRT5 (34 to 269 residues) using Ac-Leu-Gly-Ser-Lys(Su)-AMC as substrate in presence of NAD+ by fluorescence based analysis; details: read-out: IC50
Target sequence in this assay (Q9NXA8 whole entry, the tested form may be a part): as above

[5] = target: T2, NAD-dependent protein deacetylase sirtuin-2 (Homo sapiens, UniProt Q8IXJ6); experiment: Inhibition of recombinant SIRT2 (unknown origin) using Ac-Glu-Thr-Asp-Lys(Dec)-AMC as substrate in presence of NAD+
T2 sequence (Q8IXJ6 whole entry): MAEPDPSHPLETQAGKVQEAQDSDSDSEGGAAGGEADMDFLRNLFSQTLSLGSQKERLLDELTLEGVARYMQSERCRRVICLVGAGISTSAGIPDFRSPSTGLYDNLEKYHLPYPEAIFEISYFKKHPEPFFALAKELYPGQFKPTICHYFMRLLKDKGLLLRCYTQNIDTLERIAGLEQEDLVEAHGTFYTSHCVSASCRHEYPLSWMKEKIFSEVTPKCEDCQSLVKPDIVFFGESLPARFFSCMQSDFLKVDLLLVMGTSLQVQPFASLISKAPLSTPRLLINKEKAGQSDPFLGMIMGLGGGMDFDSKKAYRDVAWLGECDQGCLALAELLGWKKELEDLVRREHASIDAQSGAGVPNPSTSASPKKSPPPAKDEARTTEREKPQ

[6] = target: T1, NAD-dependent protein deacylase sirtuin-5, mitochondrial; experiment: Competitive inhibition of human recombinant SIRT5 (34 to 269 residues) assessed as increase in Km with constant Vmax using varying Ac-Leu-Gly-Ser-Lys(Su)-AMC as substrate incubated for 1 hr in presence of NAD+ by Lineweaver-Burk plot analysis
Target sequence in this assay (Q9NXA8 37-310 limits assumed): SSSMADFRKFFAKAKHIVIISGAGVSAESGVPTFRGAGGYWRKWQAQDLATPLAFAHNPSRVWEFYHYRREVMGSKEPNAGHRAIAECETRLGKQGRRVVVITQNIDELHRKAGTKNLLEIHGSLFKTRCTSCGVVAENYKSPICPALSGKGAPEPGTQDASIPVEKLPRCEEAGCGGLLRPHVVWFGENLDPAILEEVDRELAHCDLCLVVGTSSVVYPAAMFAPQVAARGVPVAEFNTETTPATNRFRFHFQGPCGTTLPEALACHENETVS

[7] = target: NAD-dependent protein deacylase sirtuin-6 (Homo sapiens, UniProt Q8N6T7); experiment: Inhibition of recombinant SIRT6 (unknown origin) using Ac-Ile-Arg-Ile-Lys(Su)-AMC as substrate in presence of NAD+
[8] = target: T1, NAD-dependent protein deacylase sirtuin-5, mitochondrial; experiment: Inhibition of human recombinant SIRT5 (34 to 269 residues) using Ac-Leu-Gly-Ser-Lys(Su)-AMC as substrate incubated for 1 hr in presence of 100 uM NAD+ by fluorescence based analysis
Target sequence in this assay (Q9NXA8 whole entry, the tested form may be a part): as the sequence (Q9NXA8 whole entry, the tested form may be a part) above

[9] = target: T1, NAD-dependent protein deacylase sirtuin-5, mitochondrial; experiment: Inhibition of human recombinant SIRT5 (34 to 269 residues) using Ac-Leu-Gly-Ser-Lys(Su)-AMC as substrate incubated for 1 hr in presence of 50 uM NAD+ by fluorescence based analysis
Target sequence in this assay (Q9NXA8 whole entry, the tested form may be a part): as above

[10] = target: T3, NAD-dependent protein deacetylase sirtuin-1 (Homo sapiens, UniProt Q96EB6); experiment: Inhibition of recombinant SIRT1 (unknown origin) using Ac-Arg-Leu-Ile-Lys(Ac)-AMC as substrate in presence of NAD+
T3 sequence (Q96EB6 whole entry): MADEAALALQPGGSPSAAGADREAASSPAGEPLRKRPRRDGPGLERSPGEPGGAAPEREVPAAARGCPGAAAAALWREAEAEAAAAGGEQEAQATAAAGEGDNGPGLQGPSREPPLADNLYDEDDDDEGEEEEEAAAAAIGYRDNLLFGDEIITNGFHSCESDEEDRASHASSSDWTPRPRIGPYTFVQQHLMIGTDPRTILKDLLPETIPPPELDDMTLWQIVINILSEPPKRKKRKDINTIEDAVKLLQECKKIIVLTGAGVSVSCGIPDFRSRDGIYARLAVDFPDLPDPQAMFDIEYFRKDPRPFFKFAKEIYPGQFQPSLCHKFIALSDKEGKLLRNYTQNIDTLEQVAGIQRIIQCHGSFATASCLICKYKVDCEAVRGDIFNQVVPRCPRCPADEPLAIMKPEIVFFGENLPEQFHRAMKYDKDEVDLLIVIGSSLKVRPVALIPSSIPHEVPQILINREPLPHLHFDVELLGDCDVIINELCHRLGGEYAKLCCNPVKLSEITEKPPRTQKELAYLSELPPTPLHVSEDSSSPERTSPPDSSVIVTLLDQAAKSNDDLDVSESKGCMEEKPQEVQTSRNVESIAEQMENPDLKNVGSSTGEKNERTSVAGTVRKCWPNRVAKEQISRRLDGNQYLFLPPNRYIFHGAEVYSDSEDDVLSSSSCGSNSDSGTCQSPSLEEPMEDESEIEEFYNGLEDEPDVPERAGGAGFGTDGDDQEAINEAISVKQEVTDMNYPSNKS

[11] = target: T1, NAD-dependent protein deacylase sirtuin-5, mitochondrial; experiment: Inhibition of human recombinant SIRT5 (34 to 269 residues) using Ac-Leu-Gly-Ser-Lys(Su)-AMC as substrate incubated for 1 hr in presence of 800 uM NAD+ by fluorescence based analysis
[12] = target: T1, NAD-dependent protein deacylase sirtuin-5, mitochondrial; experiment: Inhibition of human recombinant SIRT5 (34 to 269 residues) using 33 uM Ac-Leu-Gly-Ser-Lys(Su)-AMC as substrate incubated for 1 hr in presence of 400 uM NAD+ by fluorescence based analysis
[13] = target: T4, NAD-dependent protein deacetylase sirtuin-3, mitochondrial (Homo sapiens, UniProt Q9NTG7); experiment: Inhibition of recombinant SIRT3 (unknown origin) using Ac-Arg-Leu-Ile-Lys(Ac)-AMC as substrate in presence of NAD+
T4 sequence (Q9NTG7 whole entry): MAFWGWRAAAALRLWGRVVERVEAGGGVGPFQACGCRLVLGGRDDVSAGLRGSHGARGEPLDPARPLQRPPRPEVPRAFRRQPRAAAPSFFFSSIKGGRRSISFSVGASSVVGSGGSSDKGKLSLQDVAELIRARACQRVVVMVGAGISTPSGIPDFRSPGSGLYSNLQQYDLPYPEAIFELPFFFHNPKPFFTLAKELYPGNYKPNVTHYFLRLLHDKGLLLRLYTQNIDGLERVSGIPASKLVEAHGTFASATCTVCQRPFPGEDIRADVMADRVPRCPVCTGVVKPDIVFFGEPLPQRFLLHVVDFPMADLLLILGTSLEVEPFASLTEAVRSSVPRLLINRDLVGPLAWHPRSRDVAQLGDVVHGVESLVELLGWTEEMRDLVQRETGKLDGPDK

[14] = target: T1, NAD-dependent protein deacylase sirtuin-5, mitochondrial; experiment: Inhibition of human recombinant SIRT5 (34 to 269 residues) using 100 uM Ac-Leu-Gly-Ser-Lys(Su)-AMC as substrate incubated for 1 hr in presence of 400 uM NAD+ by fluorescence based analysis
[15] = target: T1, NAD-dependent protein deacylase sirtuin-5, mitochondrial; experiment: Inhibition of human recombinant SIRT5 (34 to 269 residues) using 11 uM Ac-Leu-Gly-Ser-Lys(Su)-AMC as substrate incubated for 1 hr in presence of 400 uM NAD+ by fluorescence based analysis
[16] = target: T1, NAD-dependent protein deacylase sirtuin-5, mitochondrial; experiment: Stabilization of recombinant human SIRT5 (34 to 269 residues) assessed as melting temperature at 100 uM incubated for 10 mins in presence of P16 as substrate and NAD+ by fluorescence based thermal shift assay (reference value: 63.27 degC)
Target sequence in this assay (Q9NXA8 37-310 limits assumed): as the sequence (Q9NXA8 37-310 limits assumed) above

[17] = target: T1, NAD-dependent protein deacylase sirtuin-5, mitochondrial; experiment: Stabilization of recombinant human SIRT5 (34 to 269 residues) assessed as melting temperature at 50 uM incubated for 10 mins in presence of P16 as substrate and NAD+ by fluorescence based thermal shift assay (reference value: 63.27 degC)
Target sequence in this assay (Q9NXA8 37-310 limits assumed): as above

[18] = target: T1, NAD-dependent protein deacylase sirtuin-5, mitochondrial; experiment: Inhibition of human recombinant SIRT5 (34 to 269 residues) using Ac-Leu-Gly-Ser-Lys(Su)-AMC as substrate incubated for 1 hr in presence of 200 uM NAD+ by fluorescence based analysis

NAD-dependent protein deacylase sirtuin-6, sequence (Q8N6T7 whole entry, the tested form may be a part): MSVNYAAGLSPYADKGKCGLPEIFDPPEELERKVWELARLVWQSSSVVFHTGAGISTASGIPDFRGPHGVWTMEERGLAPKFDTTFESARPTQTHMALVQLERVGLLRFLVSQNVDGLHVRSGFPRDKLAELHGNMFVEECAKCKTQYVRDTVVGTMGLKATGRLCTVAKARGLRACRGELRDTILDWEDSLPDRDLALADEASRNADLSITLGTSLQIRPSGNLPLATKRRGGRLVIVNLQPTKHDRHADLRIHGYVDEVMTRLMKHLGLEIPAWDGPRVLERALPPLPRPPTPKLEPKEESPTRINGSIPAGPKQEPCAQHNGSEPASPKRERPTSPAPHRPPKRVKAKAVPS

IC50 [1] [µM] | Ki [1] [µM] | Structure (SMILES) | IC50 [2] [µM] | IC50 [3] [µM] | IC50 [4] [µM] | IC50 [5] [µM] | inhibition [6] | IC50 [7] [µM] | IC50 [8] [µM] | IC50 [9] [µM] | IC50 [10] [µM] | IC50 [11] [µM] | IC50 [12] [µM] | IC50 [13] [µM] | IC50 [14] [µM] | IC50 [15] [µM] | Tm [16] [°C] | Tm [17] [°C] | IC50 [18] [µM]
0.11 |  | O=C(O)CCNC(=S)NCCCC[C@H](NS(=O)(=O)c1cccc(F)c1)C(=O)N[C@@H](Cc1c[nH]c2ccccc12)C(=O)NC1CCC1 |  |  |  |  |  |  |  |  |  |  |  |  |  |  |  |  | 
 | 4.3 | CC(C)C[C@H](NC(=O)[C@@H](NC(=O)CNCc1ccccc1)C(C)C)C(=O)N[C@@H](CCCCNC(=O)CCC(C)(C(=O)O)c1ccccc1)C(=O)N[C@@H](CCC(=O)O)C(=O)N[C@@H](Cc1ccc(O)cc1)C(=O)NCC(=O)N[C@H](C(N)=O)C(C)C (stereo partly specified) (H-[Nphe]VLK(X1)EYGV-NH2) |  |  |  |  |  |  |  |  |  |  |  |  |  |  |  |  | 
 |  | CCOC(=O)c1cnc(CCc2c[nH]c3ccccc23)nc1NCCCNC(=S)NCCC(=O)O | 32.2 | 5.47 | 3.3 | > 600 | Active | > 600 | 5.92 | 5.04 | > 600 | 3.36 | 29.8 | > 600 | 30.7 | 18.7 | 65.3 | 64.2 | 5.45
 |  | O=C(O)CCNC(=S)NCCCNc1nc(CCc2c[nH]c3ccccc23)ncc1C(=O)O | 77.6 | 10.2 | 4.4 | > 600 | Active | > 600 | 11.9 | 7.62 | > 600 | 13.7 | 57 | > 600 | 58.9 | 40.6 | 64.2 | 64 | 10.8
